“Also recorded” adds a separate entry of the source. Read-outs that look alike come from different tables or passages of the source.
Test system: patients with cGVHD
Protocol: All responses were assessed by the investigators.
Reported Adverse Events. […] All-cause mortality data collected during the study were assessed for all enrolled participants. Disease progression related death was not reported as AE.
Number of Participants With Treatment-emergent Adverse Events (TEAEs), and Treatment-emergent Serious Adverse Events (TESAEs). […] TEAEs included both SAEs and non-SAEs. […] Analysis was performed on safety population which included all participants who received at least 1 dose of study medication.

CC(C)NC(=O)COc1cccc(-c2nc(Nc3ccc4[nH]ncc4c3)c3ccccc3n2)c1 [Belumosudil, 2-{3-[4-(1H-indazol-5-ylamino)-2-quinazolinyl]phenoxy}-N-(propan-2-yl) acetamide]
Pleural effusion: Affected/At Risk (%) (Cohort 3 400 mg QD): 1/21 (4.76%)
Pneumonia respiratory syncytial viral: # Events (Cohort 3 400 mg QD): 0
Pneumonia respiratory syncytial viral: Affected/At Risk (%) (Cohort 3 400 mg QD): 0/21 (0%)
Pneumonia: # Events (Cohort 3 400 mg QD): 0
Pneumonia: Affected/At Risk (%) (Cohort 3 400 mg QD): 0/21 (0%)
Pollakiuria: # Events (Cohort 3 400 mg QD): 0
Pollakiuria: Affected/At Risk (%) (Cohort 3 400 mg QD): 0/21 (0%)
Presyncope: # Events (Cohort 3 400 mg QD): 0
Presyncope: Affected/At Risk (%) (Cohort 3 400 mg QD): 0/21 (0%)
Productive cough: # Events (Cohort 3 400 mg QD): 2
Productive cough: Affected/At Risk (%) (Cohort 3 400 mg QD): 1/21 (4.76%)
Proteinuria: # Events (Cohort 3 400 mg QD): 0
Proteinuria: Affected/At Risk (%) (Cohort 3 400 mg QD): 0/21 (0%)
Pruritus: # Events (Cohort 3 400 mg QD): 0
Pruritus: Affected/At Risk (%) (Cohort 3 400 mg QD): 0/21 (0%)
Pseudomonas infection: # Events (Cohort 3 400 mg QD): 0
Pseudomonas infection: Affected/At Risk (%) (Cohort 3 400 mg QD): 0/21 (0%)
Pulmonary mass: # Events (Cohort 3 400 mg QD): 1
Pulmonary mass: Affected/At Risk (%) (Cohort 3 400 mg QD): 1/21 (4.76%)
Pyrexia: # Events (Cohort 3 400 mg QD): 3
Pyrexia: Affected/At Risk (%) (Cohort 3 400 mg QD): 3/21 (14.29%)
Rash erythematous: # Events (Cohort 3 400 mg QD): 0
Rash erythematous: Affected/At Risk (%) (Cohort 3 400 mg QD): 0/21 (0%)
Rash maculo-papular: # Events (Cohort 3 400 mg QD): 0
Rash maculo-papular: Affected/At Risk (%) (Cohort 3 400 mg QD): 0/21 (0%)
Rash pustular: # Events (Cohort 3 400 mg QD): 0
Rash pustular: Affected/At Risk (%) (Cohort 3 400 mg QD): 0/21 (0%)
Rash: # Events (Cohort 3 400 mg QD): 1
Rash: Affected/At Risk (%) (Cohort 3 400 mg QD): 1/21 (4.76%)
Red blood cells urine positive: # Events (Cohort 3 400 mg QD): 0
Red blood cells urine positive: Affected/At Risk (%) (Cohort 3 400 mg QD): 0/21 (0%)
Renal failure: # Events (Cohort 3 400 mg QD): 0
Renal failure: Affected/At Risk (%) (Cohort 3 400 mg QD): 0/21 (0%)
Respiratory syncytial virus infection: # Events (Cohort 3 400 mg QD): 3
Respiratory syncytial virus infection: Affected/At Risk (%) (Cohort 3 400 mg QD): 2/21 (9.52%)
Respiratory tract infection fungal: # Events (Cohort 3 400 mg QD): 0
Respiratory tract infection fungal: Affected/At Risk (%) (Cohort 3 400 mg QD): 0/21 (0%)
Respiratory tract infection: # Events (Cohort 3 400 mg QD): 0
Respiratory tract infection: Affected/At Risk (%) (Cohort 3 400 mg QD): 0/21 (0%)
Restless legs syndrome: # Events (Cohort 3 400 mg QD): 0
Restless legs syndrome: Affected/At Risk (%) (Cohort 3 400 mg QD): 0/21 (0%)
Rosacea: # Events (Cohort 3 400 mg QD): 0
Rosacea: Affected/At Risk (%) (Cohort 3 400 mg QD): 0/21 (0%)
SAE, No. (%) (Cohort 3 400 mg QD): 12 (57)
Sinus pain: # Events (Cohort 3 400 mg QD): 0
Sinus pain: Affected/At Risk (%) (Cohort 3 400 mg QD): 0/21 (0%)
Sinusitis: # Events (Cohort 3 400 mg QD): 1
Sinusitis: Affected/At Risk (%) (Cohort 3 400 mg QD): 1/21 (4.76%)
Skin abrasion: # Events (Cohort 3 400 mg QD): 2
Skin abrasion: Affected/At Risk (%) (Cohort 3 400 mg QD): 2/21 (9.52%)
Skin lesion: # Events (Cohort 3 400 mg QD): 0
Skin lesion: Affected/At Risk (%) (Cohort 3 400 mg QD): 0/21 (0%)
Skin papilloma: # Events (Cohort 3 400 mg QD): 0
Skin papilloma: Affected/At Risk (%) (Cohort 3 400 mg QD): 0/21 (0%)
Spinal compression fracture: # Events (Cohort 3 400 mg QD): 0
Spinal compression fracture: Affected/At Risk (%) (Cohort 3 400 mg QD): 0/21 (0%)
Squamous cell carcinoma of skin: # Events (Cohort 3 400 mg QD): 0
Squamous cell carcinoma of skin: Affected/At Risk (%) (Cohort 3 400 mg QD): 0/21 (0%)
Stomatitis: # Events (Cohort 3 400 mg QD): 1
Stomatitis: Affected/At Risk (%) (Cohort 3 400 mg QD): 1/21 (4.76%)
Superior vena cava syndrome: # Events (Cohort 3 400 mg QD): 0
Superior vena cava syndrome: Affected/At Risk (%) (Cohort 3 400 mg QD): 1/21 (4.76%)
TEAE, participants (%) (Cohort 3 400 mg QD): 20 (95%) participants
TESAE, participants (%) (Cohort 3 400 mg QD): 13 (62%) participants
Tachycardia: # Events (Cohort 3 400 mg QD): 2
Tachycardia: Affected/At Risk (%) (Cohort 3 400 mg QD): 2/21 (9.52%)
Tendonitis: # Events (Cohort 3 400 mg QD): 0
Tendonitis: Affected/At Risk (%) (Cohort 3 400 mg QD): 0/21 (0%)
Testicular pain: # Events (Cohort 3 400 mg QD): 0
Testicular pain: Affected/At Risk (%) (Cohort 3 400 mg QD): 0/21 (0%)
Testicular swelling: # Events (Cohort 3 400 mg QD): 0
Testicular swelling: Affected/At Risk (%) (Cohort 3 400 mg QD): 0/21 (0%)
Thoracic spinal stenosis: # Events (Cohort 3 400 mg QD): 0
Thoracic spinal stenosis: Affected/At Risk (%) (Cohort 3 400 mg QD): 0/21 (0%)
Thrombocytopenia: # Events (Cohort 3 400 mg QD): 1
Thrombocytopenia: Affected/At Risk (%) (Cohort 3 400 mg QD): 1/21 (4.76%)
Thrombocytosis: # Events (Cohort 3 400 mg QD): 0
Thrombocytosis: Affected/At Risk (%) (Cohort 3 400 mg QD): 0/21 (0%)
Tinea pedis: # Events (Cohort 3 400 mg QD): 0
Tinea pedis: Affected/At Risk (%) (Cohort 3 400 mg QD): 0/21 (0%)
Tooth fracture: # Events (Cohort 3 400 mg QD): 0
Tooth fracture: Affected/At Risk (%) (Cohort 3 400 mg QD): 0/21 (0%)
Total other adverse events: Affected/At Risk (%) (Cohort 3 400 mg QD): 19/21 (90.48%)
Transfusion reaction: # Events (Cohort 3 400 mg QD): 0
Transfusion reaction: Affected/At Risk (%) (Cohort 3 400 mg QD): 0/21 (0%)
Tremor: # Events (Cohort 3 400 mg QD): 4
Tremor: Affected/At Risk (%) (Cohort 3 400 mg QD): 3/21 (14.29%)
Type 2 diabetes mellitus: # Events (Cohort 3 400 mg QD): 0
Type 2 diabetes mellitus: Affected/At Risk (%) (Cohort 3 400 mg QD): 0/21 (0%)
Ulcerative keratitis: # Events (Cohort 3 400 mg QD): 0
Ulcerative keratitis: Affected/At Risk (%) (Cohort 3 400 mg QD): 0/21 (0%)
Upper respiratory tract infection: # Events (Cohort 3 400 mg QD): 9
Upper respiratory tract infection: Affected/At Risk (%) (Cohort 3 400 mg QD): 7/21 (33.33%)
Upper-airway cough syndrome: # Events (Cohort 3 400 mg QD): 1
Upper-airway cough syndrome: Affected/At Risk (%) (Cohort 3 400 mg QD): 1/21 (4.76%)
Urinary retention: # Events (Cohort 3 400 mg QD): 0
Urinary retention: Affected/At Risk (%) (Cohort 3 400 mg QD): 0/21 (0%)
Urinary tract infection: # Events (Cohort 3 400 mg QD): 0
Urinary tract infection: Affected/At Risk (%) (Cohort 3 400 mg QD): 0/21 (0%)
Urinary tract pain: # Events (Cohort 3 400 mg QD): 1
Urinary tract pain: Affected/At Risk (%) (Cohort 3 400 mg QD): 1/21 (4.76%)
Urine output decreased: # Events (Cohort 3 400 mg QD): 0
Urine output decreased: Affected/At Risk (%) (Cohort 3 400 mg QD): 0/21 (0%)
Vascular access complication: # Events (Cohort 3 400 mg QD): 0
Vascular access complication: Affected/At Risk (%) (Cohort 3 400 mg QD): 0/21 (0%)
Vertigo: # Events (Cohort 3 400 mg QD): 0
Vertigo: Affected/At Risk (%) (Cohort 3 400 mg QD): 0/21 (0%)
Vision blurred: # Events (Cohort 3 400 mg QD): 4
Vision blurred: Affected/At Risk (%) (Cohort 3 400 mg QD): 4/21 (19.05%)
Vomiting: # Events (Cohort 3 400 mg QD): 4
Vomiting: Affected/At Risk (%) (Cohort 3 400 mg QD): 4/21 (19.05%)
Weight decreased: # Events (Cohort 3 400 mg QD): 4
Weight decreased: Affected/At Risk (%) (Cohort 3 400 mg QD): 2/21 (9.52%)
Weight increased: # Events (Cohort 3 400 mg QD): 4
Weight increased: Affected/At Risk (%) (Cohort 3 400 mg QD): 1/21 (4.76%)
White blood cell count decreased: # Events (Cohort 3 400 mg QD): 2
White blood cell count decreased: Affected/At Risk (%) (Cohort 3 400 mg QD): 1/21 (4.76%)
cytomegalovirus (CMV) infection or reactivation (Example 1): No cases; also recorded: no reported CMV infection or reactivation
deaths attributed to belumosudil (Example 1): none of the deaths attributed to belumosudil
dose response with respect to observed AEs (Example 1): no dose response
median duration of dose interruption (Example 1): 10 days
median duration of dose reduction (Example 1): 97 days
patients who discontinued because of potentially drug-related AEs (Example 1): Three
patients with dose interruptions (Example 1): 41%
patients with dose reductions (Example 1): 9%
tolerability (Example 1): well-tolerated
grade ≥3 cytopenias (Example 1, N=54): 4%
grade ≥3 dyspnea (Example 1, N=54): 13%
grade ≥3 hyperglycemia (Example 1, N=54): 7%
grade ≥3 hypoxia (Example 1, N=54): 7%
grade ≥3 increased liver function tests (Example 1, N=54): 7%
patients with a grade ≥3 AE (Example 1, N=54): Sixty-one
patients with cough (Example 1, N=54): 22%
patients with diarrhea (Example 1, N=54): 33%
patients with dyspnea (Example 1, N=54): 30%
patients with fatigue (Example 1, N=54): 33%
patients with headache (Example 1, N=54): 24%
patients with hypertension (Example 1, N=54): 20%
patients with increased liver function tests (Example 1, N=54): 33%
patients with nausea (Example 1, N=54): 33%
patients with peripheral edema (Example 1, N=54): 24%
patients with serious AEs (Example 1, N=54): 43%
patients with upper respiratory infection (Example 1, N=54): 46%
serious AE dyspnea (Example 1, N=54): 7%
serious AE hypoxia (Example 1, N=54): 4%
serious AE influenza-like illness (Example 1, N=54): 4%
serious AE lung infection (Example 1, N=54): 6%
patients who died during the study (Example 1, all in cohort 3): Four
All grade ALT/AST increased, No. (%) (Total, N=54): 18 (33)
All grade Cough, No. (%) (Total, N=54): 12 (22)
All grade Diarrhea, No. (%) (Total, N=54): 18 (33)
All grade Dyspnea, No. (%) (Total, N=54): 16 (30)
All grade Fatigue, No. (%) (Total, N=54): 18 (33)
All grade Headache, No. (%) (Total, N=54): 13 (24)
All grade Hypertension, No. (%) (Total, N=54): 11 (20)
All grade Nausea, No. (%) (Total, N=54): 18 (33)
All grade Peripheral edema, No. (%) (Total, N=54): 13 (24)
All grade URI, No. (%) (Total, N=54): 25 (46)
Any AE, No. (%) (Total, N=54): 53 (98)
Death, No. (%) (Total, N=54): 2 (4)
Drug-related AE, No. (%) (Total, N=54): 30 (56)
Drug-related SAE, No. (%) (Total, N=54): 0
Grade ≥3 AE, No. (%) (Total, N=54): 33 (61)
Grade ≥3 ALT/AST increased, No. (%) (Total, N=54): 4 (7)
Grade ≥3 Anemia, No. (%) (Total, N=54): 3 (6)
Grade ≥3 Dyspnea, No. (%) (Total, N=54): 7 (13)
Grade ≥3 Hyperglycemia, No. (%) (Total, N=54): 4 (7)
Grade ≥3 Hypoxia, No. (%) (Total, N=54): 4 (7)
Grade ≥3 Lung infection or pneumonia, No. (%) (Total, N=54): 5 (9)
SAE, No. (%) (Total, N=54): 23 (43)

— patent US20260027116A1, “Methods of Treating Chronic Graft-Versus-Host Disease Following Allogeneic Hematopoietic Stem Cell Transplantation” (Kadmon Corporation, LLC, priority 2022, published 2026)
